# Measured values reported in patent US10683525B2, “Method for producing 2-O-glyceryl-alpha-D-glucopyranoside” (Technische Universität Graz, priority 2006, dated 2020).
# Test system: mannitol dehydrogenase, MDH
# Test: Stabilization of proteins during freeze drying
# Format: biochemical
# Conditions: MDH 0.8 mg/ml, 20-1500 mM αGG in 100 mM Tris/HCl buffer pH 7.0, lyophilized over-night and redissolved; irrespective of the added αGG concentration; 2% without any stabilizer
# Procedure: The protein of interest (e.g. mannitol dehydrogenase, MDH) was incubated at a concentration of 0.8 mg/ml in the presence of 0, 20, 50, 100, 500, 1000 or 1500 mM αGG in 100 mM Tris/HCl buffer, pH 7.0. The samples were lyophilized over-night and dissolved in the same buffer again. The specific enzyme activity was determined, using appropriate assays for the corresponding enzyme as described elsewhere (Slatner M. et al., Biochemistry 38: 10489-10498), before and after freeze drying. Without any stabilizer added the enzymatic activity of MDH dropped down to 2% after freeze drying, whereas αGG is able to maintain enzymatic activity up to 48% irrespective of the added αGG concentration.
smiles,measurement,value
"OCC(CO)O[C@H]1O[C@H](CO)[C@@H](O)[C@H](O)[C@H]1O [αGG, 2-O-glyceryl-α-D-glucopyranoside]",enzymatic activity of MDH maintained after freeze drying,up to 48%
